Values of other authors, collected in patent US20090104212A1, “METHODS AND SYSTEMS FOR TREATING CELL PROLIFERATION DISORDERS USING TWO-PHOTON SIMULTANEOUS ABSORPTION” (Immunolight, priority 2007, published 2009).
Read-outs that look alike come from different tables or passages of the source. Non-standard residues stand in square brackets, D forms with d. Residues, ends and D or L forms follow the SMILES beside them. Bpa = N[CH](Cc1ccc(C(=O)c2ccccc2)cc1)C(=O)O; 2Nal = N[CH](Cc1ccc2ccccc2c1)C(=O)O; Aib = CC(C)(N)C(=O)O

Assays:
[1] = for kSET (Average): average over Λex 224, 266, 280 nm
[2] = system: tumors; settings: in vivo

For `CC(NC(=O)C(C)(C)NC(=O)C(Cc1ccc(C(=O)c2ccccc2)cc1)NC(=O)C(C)(C)NC(=O)C(Cc1ccc2ccccc2c1)NC(=O)C(C)(C)NC(=O)C(C)NC(=O)C(C)(C)N)C(=O)O` (single isomer, unassigned) [Compound 2B], the “kSET (Average)” value [1] is listed as 3.9e+07 s⁻¹, the ESSET ([1]; Λex 224 nm) is listed as 77 and the kSET ([1]; Λex 224 nm) is listed as 3.1e+07 s⁻¹. For the same compound, the ESSET ([1]; Λex 266 nm) was 81, the kSET ([1]; Λex 266 nm) was 3.9e+07 s⁻¹ and the ESSET ([1]; Λex 280 nm) was 83. The kSET ([1]; Λex 280 nm) was 4.7e+07 s⁻¹.

In the case of `CC1NC(=O)C(C)(C)NC(=O)C(Cc2ccc(C(=O)c3ccccc3)cc2)NC(=O)C(C)(C)NC(=O)C(C)NC(=O)C(C)(C)NC(=O)C(Cc2ccc3ccccc3c2)NC(=O)C(C)(C)NC1=O` (centres unmarked) [Compound 1A] (cyclo([Aib][2Nal][Aib]A[Aib][Bpa][Aib]A); configuration not given here), the “kSET (Average)” value [1] is given as 3.67e+07 s⁻¹, the ESSET ([1]; Λex 224 nm) is given as 80 and the kSET ([1]; Λex 224 nm) is given as 3.8e+07 s⁻¹. For the same compound, the ESSET ([1]; Λex 266 nm) was 79, the kSET ([1]; Λex 266 nm) was 3.6e+07 s⁻¹ and the ESSET ([1]; Λex 280 nm) was 79. For the same compound, the kSET ([1]; Λex 280 nm) was 3.6e+07 s⁻¹.

In the case of `CC(NC(=O)C(C)(C)NC(=O)C(Cc1ccc(C(=O)c2ccccc2)cc1)NC(=O)C(C)(C)NC(=O)C(C)NC(=O)C(C)(C)NC(=O)C(Cc1ccc2ccccc2c1)NC(=O)C(C)(C)N)C(=O)O` (centres unmarked) [Compound 1B] (H-[Aib][2Nal][Aib]A[Aib][Bpa][Aib]A-OH; configuration not given here), the ESSET ([1]; Λex 224 nm) is listed as 96.3, the kSET ([1]; Λex 224 nm) is listed as 2.44e+08 s⁻¹ and the ESSET ([1]; Λex 266 nm) is listed as 95. The kSET ([1]; Λex 266 nm) was 1.8e+08 s⁻¹, the ESSET ([1]; Λex 280 nm) was 94 and the kSET ([1]; Λex 280 nm) was 1.36e+08 s⁻¹.

In the case of `CC(=O)[O-].CC(=O)[O-].CCc1c(CC)c2cc3nc(cnc4cc(OCCOCCOCCOC)c(OCCOCCOCCOC)cc4ncc4nc(cc1[n-]2)C(CCCO)=C4C)C(C)=C3CCCO.O.[Lu+3]` [Lutetium texahyrin, Motexafin lutetium], the “duration of skin photosensitivity” value (clinical use) is given as 24 to 48 h, the Length of photosensitization (in vivo) is given as 24 to 48 h and the “selectivity for tumors compared to normal tissues” value [2] is given as “one of the greatest reported selectivities for tumors”.
